Results as given in ChEMBL document CHEMBL1201862, “PubChem BioAssay data set” (2004).
The source made the active and inactive calls.

How the values were obtained:
[1] = biological target: T1, Histone-lysine N-methyltransferase NSD2 (Homo sapiens, UniProt O96028); type: biochemical
T1 sequence (O96028 whole entry): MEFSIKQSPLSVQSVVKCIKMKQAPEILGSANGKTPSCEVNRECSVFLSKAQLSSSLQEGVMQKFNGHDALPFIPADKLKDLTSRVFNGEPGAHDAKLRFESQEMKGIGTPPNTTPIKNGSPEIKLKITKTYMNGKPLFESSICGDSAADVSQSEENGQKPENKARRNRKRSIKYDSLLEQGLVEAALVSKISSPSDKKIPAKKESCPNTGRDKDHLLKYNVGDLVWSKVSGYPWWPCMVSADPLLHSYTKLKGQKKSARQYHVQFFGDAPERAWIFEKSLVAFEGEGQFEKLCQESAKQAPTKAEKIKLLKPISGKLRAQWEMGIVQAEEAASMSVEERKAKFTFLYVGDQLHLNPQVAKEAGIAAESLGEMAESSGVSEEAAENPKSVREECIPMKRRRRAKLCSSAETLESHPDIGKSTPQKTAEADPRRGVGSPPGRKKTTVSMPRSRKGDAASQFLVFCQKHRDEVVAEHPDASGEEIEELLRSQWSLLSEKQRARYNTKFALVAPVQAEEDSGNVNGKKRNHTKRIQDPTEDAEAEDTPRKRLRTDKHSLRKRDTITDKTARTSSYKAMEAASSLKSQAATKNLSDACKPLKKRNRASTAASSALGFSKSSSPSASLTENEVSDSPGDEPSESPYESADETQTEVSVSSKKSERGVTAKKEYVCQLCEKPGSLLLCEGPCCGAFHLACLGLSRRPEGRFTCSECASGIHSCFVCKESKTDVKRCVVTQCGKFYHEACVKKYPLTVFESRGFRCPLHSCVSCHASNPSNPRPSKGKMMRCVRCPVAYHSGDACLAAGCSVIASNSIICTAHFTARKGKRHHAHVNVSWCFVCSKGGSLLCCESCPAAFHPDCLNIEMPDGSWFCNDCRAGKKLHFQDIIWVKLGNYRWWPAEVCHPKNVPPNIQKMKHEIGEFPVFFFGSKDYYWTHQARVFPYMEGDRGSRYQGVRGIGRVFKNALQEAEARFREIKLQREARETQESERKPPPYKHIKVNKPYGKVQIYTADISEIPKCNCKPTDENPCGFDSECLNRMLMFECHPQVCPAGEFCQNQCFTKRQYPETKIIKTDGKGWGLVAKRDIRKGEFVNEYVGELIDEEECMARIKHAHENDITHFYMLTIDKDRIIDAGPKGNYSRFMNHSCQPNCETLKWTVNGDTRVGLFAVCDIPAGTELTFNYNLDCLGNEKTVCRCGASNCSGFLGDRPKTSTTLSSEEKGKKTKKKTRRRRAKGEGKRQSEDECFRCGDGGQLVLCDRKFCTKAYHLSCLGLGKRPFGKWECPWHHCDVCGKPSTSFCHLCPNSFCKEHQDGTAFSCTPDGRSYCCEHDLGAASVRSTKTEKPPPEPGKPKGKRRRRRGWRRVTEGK

Aminopeptidase N = biological target: T2, Aminopeptidase N (Plasmodium falciparum FcB1/Columbia, UniProt O96935); assay: malaria alanyl aminopeptidase activity blockers – biochemical, fluorogenic H-Leu-NHMec substrate, 1536-well (AID 1445); parameters: species or system Plasmodium falciparum 3D7, 3D7
T2 sequence (O96935 whole entry): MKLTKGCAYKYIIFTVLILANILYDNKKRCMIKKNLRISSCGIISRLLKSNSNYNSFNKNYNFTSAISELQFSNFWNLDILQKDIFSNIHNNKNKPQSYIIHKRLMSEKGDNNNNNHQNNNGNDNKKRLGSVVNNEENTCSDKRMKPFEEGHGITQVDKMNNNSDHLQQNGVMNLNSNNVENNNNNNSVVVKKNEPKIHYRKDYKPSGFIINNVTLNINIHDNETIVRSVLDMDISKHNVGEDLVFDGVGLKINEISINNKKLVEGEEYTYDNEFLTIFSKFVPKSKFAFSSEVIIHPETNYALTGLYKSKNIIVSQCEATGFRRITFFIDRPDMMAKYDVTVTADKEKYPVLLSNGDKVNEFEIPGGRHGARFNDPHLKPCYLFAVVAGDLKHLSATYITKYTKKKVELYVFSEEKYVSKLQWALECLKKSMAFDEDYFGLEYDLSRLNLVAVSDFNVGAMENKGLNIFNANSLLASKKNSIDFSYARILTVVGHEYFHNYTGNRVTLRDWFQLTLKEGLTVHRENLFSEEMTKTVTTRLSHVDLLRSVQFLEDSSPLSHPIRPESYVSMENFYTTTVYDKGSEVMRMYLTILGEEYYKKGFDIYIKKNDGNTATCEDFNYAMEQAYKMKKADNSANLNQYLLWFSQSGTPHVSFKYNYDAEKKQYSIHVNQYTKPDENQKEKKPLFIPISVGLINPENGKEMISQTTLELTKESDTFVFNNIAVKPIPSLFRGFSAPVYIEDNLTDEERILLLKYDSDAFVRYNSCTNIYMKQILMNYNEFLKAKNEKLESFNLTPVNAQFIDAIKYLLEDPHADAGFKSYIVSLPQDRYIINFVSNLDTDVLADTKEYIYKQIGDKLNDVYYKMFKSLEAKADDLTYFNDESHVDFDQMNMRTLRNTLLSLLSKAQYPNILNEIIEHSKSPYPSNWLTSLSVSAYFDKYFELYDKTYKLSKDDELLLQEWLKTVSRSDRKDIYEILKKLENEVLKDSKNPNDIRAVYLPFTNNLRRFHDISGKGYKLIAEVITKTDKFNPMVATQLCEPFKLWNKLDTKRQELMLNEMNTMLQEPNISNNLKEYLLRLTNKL

Protein RecA = biological target: T3, Protein RecA (Mycobacterium tuberculosis, UniProt P9WHJ3); assay: Fluorescence Cell-Free Homogeneous Dose Retest to Identify Inhibitors of RecA-Intein Splicing Activity. [Related pubchem assays (depositor defined):AID2097, AID2223, AID489010, AID492950]; type: functional
T3 sequence (P9WHJ3 whole entry): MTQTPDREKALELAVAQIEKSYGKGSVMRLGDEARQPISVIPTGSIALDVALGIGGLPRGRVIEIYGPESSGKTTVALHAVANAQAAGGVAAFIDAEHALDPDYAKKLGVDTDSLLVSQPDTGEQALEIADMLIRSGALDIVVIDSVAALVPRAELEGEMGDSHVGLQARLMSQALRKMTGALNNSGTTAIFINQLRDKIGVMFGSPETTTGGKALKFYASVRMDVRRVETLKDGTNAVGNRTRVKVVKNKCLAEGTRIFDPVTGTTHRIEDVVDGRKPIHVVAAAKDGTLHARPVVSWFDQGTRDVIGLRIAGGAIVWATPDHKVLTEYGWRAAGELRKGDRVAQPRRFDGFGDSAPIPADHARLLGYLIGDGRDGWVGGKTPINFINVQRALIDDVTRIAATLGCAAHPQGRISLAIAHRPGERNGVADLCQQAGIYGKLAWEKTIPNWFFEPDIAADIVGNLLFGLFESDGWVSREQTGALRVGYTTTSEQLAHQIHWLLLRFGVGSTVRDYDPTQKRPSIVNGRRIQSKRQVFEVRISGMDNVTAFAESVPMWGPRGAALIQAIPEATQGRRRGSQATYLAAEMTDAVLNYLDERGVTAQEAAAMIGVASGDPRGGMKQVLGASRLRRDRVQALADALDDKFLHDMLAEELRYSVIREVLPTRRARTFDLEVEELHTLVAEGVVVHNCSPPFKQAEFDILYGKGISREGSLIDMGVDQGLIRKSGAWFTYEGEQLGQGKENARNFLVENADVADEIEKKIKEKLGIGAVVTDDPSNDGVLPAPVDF

Coagulation factor XII = biological target: T4, Coagulation factor XII (Homo sapiens, UniProt P00748); type: functional;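 further: activated factor XIIa alpha cleaving a fluorogenic AMC peptide substrate; inhibitor potency from loss of enzyme activity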
T4 sequence (P00748 whole entry): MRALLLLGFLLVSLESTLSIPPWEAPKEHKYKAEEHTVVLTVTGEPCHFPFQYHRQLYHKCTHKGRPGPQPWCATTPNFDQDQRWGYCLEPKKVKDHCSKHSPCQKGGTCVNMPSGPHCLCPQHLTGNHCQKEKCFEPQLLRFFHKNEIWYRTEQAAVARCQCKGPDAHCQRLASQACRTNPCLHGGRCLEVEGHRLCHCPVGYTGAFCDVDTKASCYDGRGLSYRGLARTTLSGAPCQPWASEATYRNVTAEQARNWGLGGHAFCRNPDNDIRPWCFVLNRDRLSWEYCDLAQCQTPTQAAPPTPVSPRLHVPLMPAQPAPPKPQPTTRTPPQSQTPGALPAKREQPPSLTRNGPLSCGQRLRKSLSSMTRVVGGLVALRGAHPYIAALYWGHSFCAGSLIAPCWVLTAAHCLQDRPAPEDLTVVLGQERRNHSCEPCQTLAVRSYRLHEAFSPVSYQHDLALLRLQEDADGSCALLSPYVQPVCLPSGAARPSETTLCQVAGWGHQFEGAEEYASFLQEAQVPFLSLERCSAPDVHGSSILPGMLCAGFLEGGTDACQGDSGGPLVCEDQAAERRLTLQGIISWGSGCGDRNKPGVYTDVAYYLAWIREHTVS

[2] = biological target: DNA dC->dU-editing enzyme APOBEC-3A (Homo sapiens, UniProt P31941); assay: Dose Response confirmation of small molecule APOBEC3A DNA Deaminase Inhibitors via a fluorescence-based single-stranded DNA deaminase assay. [Related pubchem assays (depositor defined):AID493011, AID493024]; type: functional
[3] = biological target: DNA dC->dU-editing enzyme APOBEC-3G (Homo sapiens, UniProt Q9HC16); type: functional;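 further: Dose-response counterscreen measuring inhibition of APOBEC3G DNA deaminase activity, run while confirming APOBEC3A inhibitors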
[4] = loss of viability in HepG2 cells – cell-based, CellTiter-Glo, cherry-picked, cytotoxicity control for Shn3 inhibitor project, dose response (AID 624134); type: functional
INS1 = assay: INS-1E survival protection against cytokine death – cell-based, luminescence, retest, dose response (AID 449756); type: functional; conditions: Rattus norvegicus;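 further: cell death triggered by IL-1 beta plus TNF-alpha plus IFN-gamma mixture; protective hits raise ATP signal compared with cytokine alone wells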
[5] = reduction of Shn3 3'UTR-driven luciferase in osteoblasts – cell-based, Clone20 osteoblasts, firefly luciferase, cherry-picked, dose response (AID 624132); type: functional;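 further: firefly luciferase luminescence from reporter carrying the Shn3 3'UTR in osteoblasts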
[6] = non-specific 3'UTR reporter inhibition in Clone20-Shn3RL – cell-based, Renilla luciferase, cherry-picked, counter-screen for Shn3 inhibitor project, dose response (AID 624133); type: functional
[7] = NIH3T3 cell viability loss – ATP luminescence, mouse fibroblasts, counter-screen, dose response (AID 2010); type: functional, cell-based;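 further: cells exposed to compound for about 90 hours before reading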
[8] = Trypanosoma cruzi growth suppression in host cells – NIH3T3 host cells, beta-gal luminescence, confirmation (AID 2044); type: functional, cell-based;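 further: intracellular parasites grown in NIH/3T3 mouse fibroblasts as host cells; luminescent beta-galactosidase reporter signal from transgenic T. cruzi replicating inside host cells; inhibitors lower the luminescence signal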
[9] = biological target: T5, RNA-binding protein pos-1 (Caenorhabditis elegans, UniProt G5EF15); assay: disruptors of C. elegans POS-1 RNA interaction – biochemical, fluorescence polarization, dose response (AID 1964);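 further: purified POS-1 fused to maltose binding protein made in E. coli; potency of compounds blocking POS-1 binding to fluorescent RNA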
T5 sequence (G5EF15 whole entry): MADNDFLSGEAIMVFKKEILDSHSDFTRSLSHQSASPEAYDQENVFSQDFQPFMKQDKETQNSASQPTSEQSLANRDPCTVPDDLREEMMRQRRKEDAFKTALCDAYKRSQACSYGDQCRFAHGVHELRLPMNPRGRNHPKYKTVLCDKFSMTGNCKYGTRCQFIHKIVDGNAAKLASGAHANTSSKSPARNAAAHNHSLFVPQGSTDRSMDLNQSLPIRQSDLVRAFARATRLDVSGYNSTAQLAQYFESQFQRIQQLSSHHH

[10] = biological target: T6, Zinc finger protein mex-5 (Caenorhabditis elegans, UniProt Q9XUB2); assay: potency of MEX-5 RNA-binding blockers – biochemical, C. elegans, fluorescence polarization, dose response (AID 1960)
T6 sequence (Q9XUB2 whole entry): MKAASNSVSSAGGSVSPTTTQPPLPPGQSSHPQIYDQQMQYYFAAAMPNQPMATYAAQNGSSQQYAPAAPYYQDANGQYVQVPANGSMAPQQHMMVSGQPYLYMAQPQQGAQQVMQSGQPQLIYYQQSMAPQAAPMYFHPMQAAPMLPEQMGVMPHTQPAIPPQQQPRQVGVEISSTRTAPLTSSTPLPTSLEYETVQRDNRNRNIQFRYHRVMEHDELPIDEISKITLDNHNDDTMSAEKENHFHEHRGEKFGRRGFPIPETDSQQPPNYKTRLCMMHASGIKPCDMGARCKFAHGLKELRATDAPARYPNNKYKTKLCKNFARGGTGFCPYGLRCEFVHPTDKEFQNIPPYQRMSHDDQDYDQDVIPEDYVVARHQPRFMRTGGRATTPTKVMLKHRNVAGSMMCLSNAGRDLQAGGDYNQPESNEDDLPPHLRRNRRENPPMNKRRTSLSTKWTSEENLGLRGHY

Sequence of DNA dC->dU-editing enzyme APOBEC-3G (Q9HC16 whole entry): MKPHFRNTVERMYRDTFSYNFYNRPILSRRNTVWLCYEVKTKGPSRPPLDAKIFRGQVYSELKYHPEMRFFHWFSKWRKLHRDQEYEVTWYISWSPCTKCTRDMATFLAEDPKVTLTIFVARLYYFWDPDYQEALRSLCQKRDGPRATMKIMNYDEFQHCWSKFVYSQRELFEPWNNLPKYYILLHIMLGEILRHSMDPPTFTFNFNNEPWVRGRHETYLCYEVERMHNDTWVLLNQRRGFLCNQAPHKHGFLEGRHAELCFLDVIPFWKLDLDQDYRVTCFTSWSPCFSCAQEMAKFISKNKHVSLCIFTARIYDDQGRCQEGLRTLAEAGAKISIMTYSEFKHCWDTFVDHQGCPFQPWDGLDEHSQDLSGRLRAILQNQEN
Sequence of DNA dC->dU-editing enzyme APOBEC-3A (P31941 whole entry): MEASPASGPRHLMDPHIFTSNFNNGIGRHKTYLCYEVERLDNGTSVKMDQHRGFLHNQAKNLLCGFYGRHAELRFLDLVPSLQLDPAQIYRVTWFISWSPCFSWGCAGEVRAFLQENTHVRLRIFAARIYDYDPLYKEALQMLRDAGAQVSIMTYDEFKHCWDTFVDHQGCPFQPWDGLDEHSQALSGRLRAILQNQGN

Structure (SMILES)	IC50 (Coagulation factor XII)	IC50 [2]	IC50 [3]	further results
C=CCn1c(NC(=O)c2ccc(Br)o2)c(S(=O)(=O)c2ccccc2)c2nc3ccccc3nc21				AC50 [1]: 10.6 µM (active); IC50 (Aminopeptidase N): 17.4 µM (active); EC50 (Protein RecA): > 380 µM (inconclusive)
Cc1cc(NC(=O)COC(=O)c2cccc(S(=O)(=O)N(C)C3CCCCC3)c2)no1	> 50 µM (inactive)			
COC(=O)C(C)N1C(=O)S/C(=C\c2ccc(-c3ccc(C(=O)O)cc3C)o2)C1=O (centres undefined)		5.66 µM (active)	4.97 µM (active)	
Cc1n[nH]c(C)c1CCC(=O)N/N=C/c1cccs1	> 50 µM (inactive)			
C=CCNC(=O)CN(c1ccc(F)cc1)S(=O)(=O)c1ccc(OC)cc1	> 50 µM (inactive)			
CC[n+]1c(C)n(Cc2ccccc2)c2ccc(C(=O)OC)cc21		2.88 µM (active)	3.62 µM (active)	
O=C(Nc1ccc(NC(=O)c2ccc(Cl)cc2Cl)cc1)c1cccs1		10.6 µM (active)	11.8 µM (active)	
C[n+]1cccc(C(=O)N/N=C/c2ccc3c(c2)OCO3)c1		3.15 µM (active)	8.99 µM (active)	
O=C(Nc1ccc(F)cc1)Nc1cc(OCC(F)(F)F)cc(OCC(F)(F)F)c1	> 50 µM (inactive)			AC50 [4]: 4.1 µM (active); AC50 (INS1): 2.01 µM (active); AC50 [5]: 2.46 µM (active); AC50 [6]: 4.59 µM (active)
CCN1CCN(c2ccc(S(=O)(=O)N3CCCCC3)cc2NC(=O)c2cccc(C(F)(F)F)c2)CC1		7.71 µM (active)	13.2 µM (active)	EC50 [7]: > 30 µM (not active); EC50 [8]: 1.09 µM (active)
CCOC(=O)C1CCN(S(=O)(=O)c2ccc3c(c2)CC(=O)N3C)CC1		2.81 µM (active)	4 µM (active)	
Nn1c(Cc2cccc3ccccc23)nnc1SCCOc1ccc(F)cc1	> 50 µM (inactive)			
COc1cc2ccccc2cc1C(=O)NC(=S)Nc1cc(C(=O)O)ccc1C	> 50 µM (inactive)			EC50 [9]: > 300 µM (not active); EC50 [10]: > 300 µM (not active)
